From patent US20110319484A1, “NEUROPROTECTIVE COMPOUNDS” (Parque Tecnologico de Ciencias de la Salud, priority 2009, published 2011)
Where a SMILES comes first, the peptide text is derived from it. The star is where a group is joined. Cbz = O=C(OCc1ccccc1)*; CH2F = FC*

Assays:
[1] = system: human neuroblastoma SK-N-MC cells; experiment: Inhibition of ROS production induced by xanthine/xanthine oxidase (H2DCFDA probe, LDH-normalized); type: cell-based; conditions: XXO 10 μM-100 mU/ml, AA 100 μM, positive control
Procedure: The assay was performed on human neuroblastoma SK-N-MC cells in culture from the American Type Culture Collection (ATCC) (HTB-10), in all cases strict rules of sterility were followed and the manipulation was performed in class II biological safety cabinets following European standard EN 12469. The cells were maintained in Minimum Essential Medium Eagle (MEM) culture medium supplemented with 1 mM sodium pyruvate, 2 mM L-glutamine, 0.1 mM non-essential amino acids, 0.05 mg/ml gentamicin and 10% fetal bovine serum.
The inhibition by the NST0003 compound [(1S,3R,7S,8S,8aR)-1,2,3,7,8,8a-hexahydro-3,7-dimethyl-8-[2-[(2R,4R)-tetrahydro-4-hydroxy-6-oxo-2H-pyran-2-yl]ethyl-1-naphthalenyl propanoate] on the production of reactive oxygen species (ROS) in the SK-N-MC cells, was analyzed. […]
The cells were incubated (at 37° C. and 5% CO2) with these treatments for 3 h, after which time they were washed with HKRB buffer (20 mM HEPES, 103 mM NaCl, 4.77 mM KCl, 0.5 mM CaCl2, 1.2 mM MgCl2, 1.2 mM KH2PO4, 25 mM […], 15 mM glucose; at pH 7.3) after which the 2′,7′-dichlorodihydrofluorescein diacetate (H2DCFDA) probe was added at 30 μM diluted in HKRB buffer and it was incubated for another 2 hours in the same conditions. The reading of the plate was taken in a fluorometer at the conditions of 485 nm for excitation and 538 nm for emission. […]

[2] = system: SK-N-MC cells; experiment: Inhibition of camptothecin-induced apoptosis by flow cytometry (propidium iodide, sub-G1); type: cell-based, human; conditions: camptothecin 50 μM, 6 h, Z-VAD-fmk 50 μM
Procedure: To that end, the inhibition caused by the NST0005 compound of apoptosis caused by the treatment with camptothecin (Campt) was analyzed. The SK-N-MC cells, not exceeding 15 passages, were seeded on 6-well plates treated for adherent cells with a cell concentration of 8×10^5 cells/well; 2 wells of the plate were seeded for each condition of the assay.
After 24 h of cell incubation at 37° C. and 5% CO2 the cell treatments were performed with 2 ml of total volume for the following conditions: (i), control (culture medium); (ii), camptothecin [50 μM]; (iii) camptothecin [50 μM] and Z-VAD-fmk [50 μM] (Alexis), as positive control of inhibition; and (iv), 50 μM camptothecin with NST0005 at different concentrations [4, 10, 40 and 100 μg/ml].
The cells were incubated (at 37° C. and 5% CO2) with these treatments for 6 h, after which time they were pooled together with their culture medium and centrifuged at 300×g for 5 minutes. The medium was removed, a washing was performed with phosphate buffered saline (PBS) and they were fixed for 2 minutes with 500 μl of 70% ethanol at −20° C. […] After this time, they were analyzed by flow cytometry, comparing the fluorescence of the propidium iodine against the amount of DNA. The percentage of apoptosis was measured on the sub-G1 region of each of the conditions. […]

[3] = system: caspase 3/7 activation in SK-N-MC cells; experiment: Inhibition of camptothecin-induced caspase 3/7 activation (Apo-ONE kit); type: cell-based, human; conditions: camptothecin 50 μM, 6 h, Z-VAD-fmk 50 μM
Procedure: To that end, the inhibition caused by (1S,3R,7S,8S,8aR)-1,2,3,7,8,8a-hexahydro-3,7-dimethyl-8-[2-[(2R,4R)-tetrahydro-4-hydroxy-6-oxo-2H-pyran-2-yl]ethyl-1-naphthalenyl 2,2-dimethylpropanoate (NST0005) of apoptosis caused by the treatment with camptothecin (Campt) on the SK-N-MC cells in culture was analyzed following the working conditions specified in section 3.1. Apoptosis can be quantified by measuring effector caspase activation. Caspases (proteins belonging to the cysteine-protease group) mediate the cleavage of a series of proteins triggering the signaling cascade which leads cells to apoptosis. […] The active cellular caspases 3 or 7 cause the cleavage of the substrate, emitting fluorescence which is read by means of a fluorometer.
The effect of the pretreatment of the NST0005 compound at 40 and 100 μg/ml on caspase 3/7 activation caused by 50 μM of camptothecin (Campt) in the SK-N-MC cells was thus analyzed. […]
The cells were incubated (at 37° C. and 5% CO2) with these treatments for 6 h, after which time the lysis buffer and the substrate rhodamine 110 were added at the concentrations specified by the manufacturer; they were incubated at room temperature for 30 minutes and the cells were then frozen at −20° C. overnight. They were thawed the next day and the reading of the plate was taken in a fluorometer at 499 nm for excitation and 521 nm for emission.

SMILES	inhibition at 100 µM [1] [%]	inhibition of apoptosis caused by camptothecin (flow cytometry) [2] [%]	inhibition of caspase 3/7 activation [3]
O=C1O[C@H]([C@@H](O)CO)C(O)=C1O [AA, ascorbic acid, reference compound]	80		
COC(=O)C[C@H](NC(=O)[C@H](C)NC(=O)[C@@H](NC(=O)OCc1ccccc1)C(C)C)C(=O)CF [Z-VAD-fmk, reference compound] (Cbz-Val-Ala-Asp(OMe)-CH2F)		30	completely inhibited
